Results taken from US20030109501A1, “High throughput assay for N-sulfotransferase activity of glucosaminyl N-deacetylase/N-sulfotransferases” (priority 2001, published 2003).

Columns and labels:
Assay type in all cases: biochemical
[1] = target: T1, recombinant human NDST-2 (wild-type) (Homo sapiens, UniProt P52849); assay: Manual sulfotransferase assay; conditions: final concentration of 6.25 μM; N-acetyl-de-O-sulfated heparin acceptor, 37° C. for 30 min; read-out: percent inhibition of N-sulfotransferase activity
T1 construct: the DNA fragment consisting of nucleotides 133-2651 of the human NDST-2 cDNA; made in house; host or cells: DG44 CHO cells (secreted, harvested from supernatant)
T1 sequence (P52849 40-883 limits assumed): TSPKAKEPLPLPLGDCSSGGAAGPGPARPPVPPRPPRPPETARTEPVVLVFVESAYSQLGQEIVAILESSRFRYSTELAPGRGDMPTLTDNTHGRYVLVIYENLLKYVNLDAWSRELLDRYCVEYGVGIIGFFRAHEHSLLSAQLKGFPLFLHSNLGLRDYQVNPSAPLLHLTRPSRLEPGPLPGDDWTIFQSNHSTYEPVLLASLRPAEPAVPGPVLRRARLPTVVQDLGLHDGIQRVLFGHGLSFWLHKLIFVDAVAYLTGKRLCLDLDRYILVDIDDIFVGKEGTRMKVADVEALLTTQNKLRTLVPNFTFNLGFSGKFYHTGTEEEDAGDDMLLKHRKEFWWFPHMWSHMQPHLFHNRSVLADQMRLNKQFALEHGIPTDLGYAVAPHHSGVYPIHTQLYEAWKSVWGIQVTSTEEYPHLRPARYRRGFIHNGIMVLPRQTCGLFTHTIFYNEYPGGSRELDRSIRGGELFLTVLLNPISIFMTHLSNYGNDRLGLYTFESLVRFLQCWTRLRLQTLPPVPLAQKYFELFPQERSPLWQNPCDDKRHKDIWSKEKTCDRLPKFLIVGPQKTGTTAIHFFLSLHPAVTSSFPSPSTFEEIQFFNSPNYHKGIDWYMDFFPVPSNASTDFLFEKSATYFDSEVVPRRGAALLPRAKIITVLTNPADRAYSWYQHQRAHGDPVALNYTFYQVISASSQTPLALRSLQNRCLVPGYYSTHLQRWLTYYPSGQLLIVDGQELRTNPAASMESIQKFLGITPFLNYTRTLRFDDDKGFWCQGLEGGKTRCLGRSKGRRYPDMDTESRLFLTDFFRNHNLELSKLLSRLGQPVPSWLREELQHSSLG
Description: The manual sulfotransferase assays were conducted basically as described by Pettersson [Pettersson, I. et al. (1991) J. Biol. Chem. 266, 8044-8049; which is hereby incorporated herein by reference]. The following components were added into Eppendorf vials at a final volume of 200 μl/vial.
1. 119 μl of the Reaction Buffer whose components are described in EXAMPLE 3 herein
2. 1 μl of N-acetyl-de-O-sulfated heparin used as a sulfate acceptor (A6039, Sigma, 25 mg/ml, […]).
3. 20 μl of enzyme NDST-2 (17.6 μg/ml, […]).
4. 50 μl of test compounds (compound-treated reaction, 25 μM, 6.25 μM/vial) or 50 μl of 10% DMSO in reaction buffer (untreated reaction).
5. 10 μl of ^35[S]-PAPS used as a sulfate donor (2 μCi/ml, 100 nCi/vial).
All vials were incubated at 37° C. for 30 min. Reactions were stopped by the addition of 400 μl of 100% ethanol and 35 μl of 3 M sodium acetate into the vials. The samples were placed on dry ice for 5 min and then centrifuged at speed of 14,000 rpm for 5 min. The supernatants were discarded while the pellets were washed twice with 70% ethanol and then dissolved in 100 μl of water. […] Radioactivity was determined in a Beckman model LS 3800 scintillation counter (Beckman Coulter, Fullerton, Calif.). […]

[2] = target: T2, recombinant human wild-type NDST-2 (Homo sapiens, UniProt P52849); assay: Solid phase SPA assay for N-sulfotransferase activity (wild-type NDST-2); conditions: wild-type NDST-2 0.4 μg/well, fully desulfated heparin pre-coated WGA-SPA beads, 35[S]-PAPS 10 nCi/well, room temperature 5 h
T2 construct: the DNA fragment consisting of nucleotides 133-2651 of the human NDST-2 cDNA; made in house; host or cells: DG44 CHO cells (secreted, harvested from supernatant)
T2 sequence (P52849 40-883 limits assumed): T1 sequence (P52849 40-883 limits assumed)
Description: (§1) The assays were conducted at room temperature in Reaction Buffer whose components were described in Example 3. The following components were added into the wells of a 96-well white plate (29444-020, Corning, N.Y.) at a final volume of 100 μl/well.
(§2) 1. 25 μl of the Reaction Buffer.
(§3) 2. 25 μl of desulfated heparin-coated beads (20 mg/ml, 500 μg/well).
(§4) 3. 25 μl of enzyme (ST2, 0.1 mg/ml, 2.5 μg/well or NDST-2, 17.6 μg/ml, 0.44 μg/well) and the plate was incubated on a shaker with slight agitation for 2 min.
(§5) 4. 25 μl of ^35[S]-PAPS (NEG-010, 0.832 mCi/ml, NEN Life Science, Boston, Mass.) (0.4 μCi/ml, 10 nCi/well).
The plate was sealed and incubated for 2-24 h. Radioactivity of the plate was then read in a Packard TopCount microplate scintillation counter (Packard Instrument, Downers Grove, Ill.). […]
(§6) A list of 335 compounds was obtained from a search of the Bristol-Myers Squibb inventoried database using the PHASE program and the bound conformation of PAPS taken from the NDST-1 crystal structure [Kakuta, Y. et al. (1999) J. Biol. Chem. 274, 10673-10676]. […] Percentage of inhibition was determined by equation; % Inhibition=(1-cpm with compound/cpm without compound)×100. […]
Compound A (FIGS. 6A and C) and Compound B (FIGS. 6B and D) in DMSO were added into 96-well white plates at the indicated concentrations. […] The plates were read in the TopCount microplate scintillation counter. […]

[3] = target: T3, recombinant human sulfotransferase domain of NDST-2 (ST2) (Homo sapiens, UniProt P52849); assay: Solid phase SPA assay for N-sulfotransferase activity (ST2); conditions: ST2 2.5 μg/well, room temperature 5 h; for IC50: fully desulfated heparin pre-coated WGA-SPA beads, 35[S]-PAPS 10 nCi/well
T3 construct: subcloning the N-sulfotransferase domain of NDST-2 from the vector pFASTBac-GST-NDST-2; made in house; host or cells: E. coli BL21(DE3)pLysS
T3 sequence (P52849 598-883 limits assumed): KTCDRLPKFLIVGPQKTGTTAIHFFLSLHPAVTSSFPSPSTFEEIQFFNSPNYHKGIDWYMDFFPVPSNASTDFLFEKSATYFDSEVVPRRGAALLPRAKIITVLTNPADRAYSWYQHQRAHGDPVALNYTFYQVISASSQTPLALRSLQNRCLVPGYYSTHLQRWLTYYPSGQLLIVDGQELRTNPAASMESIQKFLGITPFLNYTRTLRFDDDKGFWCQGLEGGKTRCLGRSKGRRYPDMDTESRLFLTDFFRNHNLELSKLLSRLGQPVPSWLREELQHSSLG
Description: as §1, §2, §3, §4, §5
The plate was sealed and incubated for 2-24 h. Radioactivity of the plate was then read in a Packard TopCount microplate scintillation counter (Packard Instrument, Downers Grove, Ill.). The signal-to-noise ratio is the result of counts-per-minute (CPM) in the presence of enzyme divided by counts-per-minute in the absence of enzyme.
as §6, with “10673-10676]. The PHASE program is an internally developed program for database searches based on ligand molecular shape and pharmacophroic elements.” for “10673-10676].”
The plate was incubated at room temperature and 5 h. The plate was read in the TopCount scintillation counter. […] The Km of PAPS is determined as a PAPS concentration by using the Michaelis-Menten equation: y=5×10^−5x+5×10^−5.
Compound A (FIGS. 6A and C) and Compound B (FIGS. 6B and D) in DMSO were added into 96-well white plates at the indicated concentrations. […] The plates were read in the TopCount microplate scintillation counter. Percentage of inhibition was determined by the following equation: % Inhibition=(1-cpm with compound/cpm without compound)×100. IC50 was determined by the Microsoft XLfit program.

inhibition at 6.25 µM [1] [%]	IC50 [2] [nM]	IC50 [3] [nM]	Km ([3]; double-reciprocal plot, read-out: Km of PAPS) [µM]	Compound
94.7	~1720	~399	–	O=P(O)(O)CC(Cc1ccc(Cl)cc1)CP(=O)(O)O [Compound A]
64.8	~2440	~520	–	CC(C)c1ccc(O)c(CN(CP(=O)(O)O)CP(=O)(O)O)c1 [Compound B]
–	–	–	~1	Nc1ncnc2c1ncn2[C@@H]1O[C@H](COP(=O)(O)OS(=O)(=O)O)[C@@H](OP(=O)(O)O)[C@H]1O [PAPS, adenosine 3′-phosphate 5′-phosphosulfate, reference compound]
